The nature of data set [1]: Cytotoxicity against Mus musculus BALB/c (mouse) splenocytes assessed as decrease in [3H]-thymidine incorporation at 1 to 100 ug/mL after 24 hr by beta-radiation counting analysis relative to untreated control. It is filed as cell-based. As to conditions: splenocyte; call rule not given here.
Data set [2] relates to Trypanosoma cruzi. The experiment in a line: Antitypanosomal activity against benznidazole-resistant trypomastigote stage of Trypanosoma cruzi Y assessed as parasite growth inhibition after 24 hr by hemacytometric analysis. It is filed as functional, organism-based.
Data set [3] concerns Trypanosoma cruzi. The experiment in a line: Antitypanosomal activity against benznidazole-resistant epimastigote stage of Trypanosoma cruzi Y assessed as parasite growth inhibition after 11 days by hemacytometric analysis. It is filed as functional, organism-based.
Data set [4] is described as follows: Cytotoxicity against Mus musculus BALB/c (mouse) splenocytes assessed as decrease in [3H]-thymidine incorporation after 24 hr by beta-radiation counting analysis. It is filed as cell-based, Splenocyte. To be noted: read-out: MNCC. For orientation: Dividing cells build labelled thymidine or BrdU into new DNA.
For data set [5], the system named is Trypanosoma cruzi. Kind of data set: Ratio of benznidazole IC50 to compound IC50 for benznidazole-resistant trypomastigote stage of Trypanosoma cruzi Y. It is filed as functional.
Data set [6] has as its system Trypanosoma cruzi. The experiment in a line: Ratio of nifurtimox IC50 to compound IC50 for benznidazole-resistant trypomastigote stage of Trypanosoma cruzi Y. It is filed as functional.
[7] abbreviates: Trypanosoma cruzi, Y, 24 h, read-out: IC50.
Setting [8] is: Trypanosoma cruzi, Y, 264 h, read-out: IC50.

Broadly, the IC50 is the midpoint of a concentration-inhibition curve. With `COc1ccc(C2C(c3ccc(C)cc3)=NOC23CSc2ccccc2C3=O)cc1` (stereo unspecified), the Activity entry in data set [1] was “Non-toxic”. For the same compound, the IC50 entry in data set [2] and in data set [3] was “Not Active” in each case.

As to `Cc1ccc(C2=NOC3(SCc4ccccc4C3=O)C2c2ccc(C)cc2)cc1` (stereo unspecified), the MNTC at 24 h in data set [4] is 50 µg/mL. The IC50 is 3.78 µM in data set [2] (setting [7]) and 19.1 µM in data set [3] (setting [8]). The “Ratio IC50” value in data set [5] and in data set [6] was 3 throughout.

In the case of `COc1ccc(C2C(c3ccc(C)cc3)=NOC23SCc2ccccc2C3=O)cc1` (stereo unspecified), the MNTC at 24 h in data set [4] was determined as 5 µg/mL. Also, the 50% inhibitory concentration (IC50) was determined as 19 µM in data set [2] (setting [7]) and 5.5 µM in data set [3] (setting [8]).

`O=C(Cn1ccnc1[N+](=O)[O-])NCc1ccccc1` [BENZNIDAZOLE]: in data set [3] (setting [8]), the IC50 amounted to 6.6 µM.

As for `COc1ccc(C2=NOC3(SCc4ccccc4C3=O)C2c2ccc(C)cc2)cc1` (stereo unspecified), the MNTC at 24 h in data set [4] amounted to 10 µg/mL. Further, the half-maximal inhibitory concentration (IC50) came out at 1.9 µM in data set [2] (setting [7]) and 62.5 µM in data set [3] (setting [8]). The “Ratio IC50” value in data set [5] and in data set [6] was 3 in each case.

Consider `CC1CS(=O)(=O)CCN1/N=C/c1ccc([N+](=O)[O-])o1` (stereo unspecified) [NIFURTIMOX], for which the MNTC at 24 h in data set [4] came to 3.4 µM.

Turning to `Cc1ccc(C2C(c3ccc([N+](=O)[O-])cc3)=NOC23SCc2ccccc2C3=O)cc1` (stereo unspecified), in data set [4], the MNTC at 24 h was found to be 50 µg/mL. The IC50 in data set [2] (setting [7]) came to 45.4 µM; in data set [3] (setting [8]) it was 27.9 µM.

As to `COc1ccc(C2C(c3ccccc3)=NOC23CSc2ccccc2C3=O)cc1` (stereo unspecified), the Activity result in data set [1] is listed as “Non-toxic”. The IC50 entry in data set [2] and in data set [3] was “Not Active” each time.

As to `COc1ccc(C2=NOC3(SCc4ccccc4C3=O)C2c2ccc(OC)cc2)cc1` (stereo unspecified), the MNTC at 24 h in data set [4] stood at 50 µg/mL. The figures for the IC50 in data set [2] (setting [7]) and in data set [3] (setting [8]) were 1.5 µM and 1.95 µM, respectively.

On to `Cc1ccc(C2=NOC3(CSc4ccccc4C3=O)C2c2ccccc2)cc1` (stereo unspecified), for which the Activity entry in data set [1] is “Non-toxic”. Moreover, the half-inhibitory concentration (IC50) result in data set [2] and in data set [3] was “Not Active” throughout.

Regarding `Cc1ccc(C2=NOC3(CSc4ccccc4C3=O)C2c2ccc([N+](=O)[O-])cc2)cc1` (stereo unspecified), the Activity result in data set [1] is recorded as “Non-toxic”. The IC50 result in data set [2] and in data set [3] was “Not Active” each time.

For the compound `O=C1c2ccccc2CSC12ON=C(c1ccc(Cl)cc1)C2c1ccc([N+](=O)[O-])cc1` (stereo unspecified), the MNTC at 24 h in data set [4] turned out to be 5 µg/mL. Further, the half-inhibitory concentration (IC50) was 22 µM in data set [2] (setting [7]) and 20.5 µM in data set [3] (setting [8]).

(Values after ChEMBL document CHEMBL3046533, “Molecular drug design, synthesis and pharmacophore site identification of spiroheterocyclic compounds: Trypanosoma crusi inhibiting studies” (Med Chem Res, 2013).)
